Laboratory results from patent US20240269145A1, “USE OF INDOLE COMPOUND AS INHIBITORS OF FERROPTOSIS” (MITOIMMUNE THERAPEUTICS INC., priority 2023, published 2024).

Tests used:
Type in all cases: cell-based
H9C2 cells = assay: Cell death protection by real-time imaging after erastin; conditions: H9C2, erastin 1 μM, compound 0.1 μM, imaged every 3 hours for 24 hours
Method: To confirm a cell death protection effect on cardiac cells through images, 2.5×10^5 H9C2 cells were dispensed into each confocal dish and cultured for 2 days. Each dish was treated with Example Compound 1 and ferrostatin-1, which were diluted to a final concentration of 0.1 μM, and culture was performed for 20 minutes. Afterwards, the cells were treated with erastin so that the final concentration became 1 μM, and images were taken using real-time imaging equipment [Nanolive; CX-A] every 3 hours for 24 hours to confirm changes in the H9C2 cells.

NIH/3T3 cells = assay: Cytosolic lipid ROS after erastin, Experimental Example 3-3; conditions: NIH/3T3, erastin 3 μM, 6 hr; tested 0.1, 1, 10 μM
Method: [The source words this procedure for another cell line and says it was used here with some conditions changed.] Experimental Example 3-1: To confirm the protective effect against cytosolic lipid reactive oxygen species in lung epithelial cells, 2×10^5 MLE-12 cells were dispensed into each well of a 12-well plate and cultured for 18 to 24 hours. Each well was treated with Example Compound 1 and ferrostatin-1, which were diluted so that their final concentration became 0.01, 0.1, 1, and 10 μM, and culture was performed for 15 minutes. Afterwards, the cells were treated so that the final concentration of RSL3 became 1 μM, and cultured for 2 hours. To confirm the inhibitory effect against cytosolic lipid reactive oxygen species, BODIPY™ 581/591 C11 (lipid peroxidation sensor) [Invitrogen™; D3861] was used. According to the manufacturer's experimental method, BODIPY™ 581/591 C11 was diluted in the cell culture medium so that the final concentration became 5 μM, and the cells were treated therewith and allowed to react for 30 minutes to perform fluorescent staining. The MLE-12 cells fluorescently stained with BODIPY™ 581/591 C11 were detached from the 12-well plate using 0.25% Trypsin-EDTA and transferred to a microtube, and the fluorescence (excitation/absorption 500 to 650 nm/510 to 665 nm) was measured using BD FACSLyric™ to calculate the rate of change compared to the control group. […]

HK-2 = assay: Cell death protection, LDH release after RSL3; conditions: HK-2, RSL3 0.3 μM, 24 hours
Method: (§1) To confirm the protective effect on cardiac cells, adrenal medulla cells, renal fibroblasts, retinal epithelial cells, lung epithelial cells, renal proximal tubule epithelial cells, hippocampal neurons, and fibroblasts, 4×10^3 to 1.2×10^4 cells of each cell type were dispensed into 96-well plates and cultured for 18 to 24 hours. Each well was treated with the example compound, which was diluted so that the final concentration became 0.001, 0.003, 0.01, 0.03, 0.1, 0.3, 1, 3, and 10 μM, and culture was performed for 15 to 20 minutes. […] To confirm the cell protecting effect of the example compounds, a cytotoxicity LDH assay kit [Dojindo; CK12] was used to measure the level of extracellular secretion of lactate dehydrogenase (LDH). Briefly, at the time point when the 24-hour treatment of each cell type with RSL3 ended, 70 μL of each supernatant from cell culture medium was taken and transferred to a new 96-well plate. After adding 70 μL/well (the same amount as the sample) of the assay buffer included in the kit, the resulting mixture was wrapped with foil and allowed to react at room temperature for 15 to 20 minutes. After observing the color change of the sample, 35 μL/well of a stop solution was added, and the absorbance value at 490 nm was measured using an iD3 spectrophotometer to calculate the EC50 value.
(§2) Table 3. Effect of protecting cardiac cells, adrenal medulla cells, renal fibroblasts, retinal epithelial cells, lung epithelial cells, renal proximal tubule epithelial cells, hippocampal neurons, and fibroblasts against cell death induced by RSL3.

ARPE-19 = assay: Cell death protection, LDH release after RSL3; conditions: ARPE-19, RSL3 0.3 μM, 24 hours
Method: as §1, §2

MLE-12 = assay: Cell death protection, LDH release after RSL3; conditions: 24 hours
Method: as §1, §2

MLE-12 cells = assay: Cytosolic ROS (CM-H2DCFDA) after RSL3; conditions: MLE-12, 1 μM RSL3, 2 hours
Method: To confirm the protective effect against cytosolic reactive oxygen species in lung epithelial cells, 2×10^5 MLE-12 cells were dispensed into each well of a 12-well plate and cultured for 18 to 24 hours. Each well was treated with Example Compound 1 and ferrostatin-1, which were diluted so that their final concentration became 0.01, 0.1, 1, and 10 μM, and culture was performed for 15 minutes. Afterwards, the cells were treated so that the final concentration of RSL3 became 1 μM, and cultured for 2 hours. To confirm the inhibitory effect against cytosolic reactive oxygen species, CM-H2DCFDA (general oxidative stress indicator) [Invitrogen™; C6827] was used. According to the manufacturer's experimental method, CM-H2DCFDA was diluted in the cell culture medium so that the final concentration became 5 μM, and the cells were treated therewith and allowed to react for 30 minutes to perform fluorescent staining. The MLE-12 cells fluorescently stained with CM-H2DCFDA were detached from the 12-well plate using 0.25% Trypsin-EDTA and transferred to a microtube, and the fluorescence (excitation/absorption 492 to 495 nm/517 to 527 nm) was measured using BD FACSLyric™ to calculate the rate of change compared to the control group.

Structure (SMILES) | time for which cell death was inhibited (H9C2 cells) | concentration at which cytosolic lipid reactive oxygen species were decreased (NIH/3T3 cells) [µM] | EC50 (HK-2; Homo sapiens) [µM] | EC50 (ARPE-19; Homo sapiens) [µM] | EC50 (MLE-12; MLE12, MLE-12, RSL3 1 μM) [µM] | concentration at which cytosolic reactive oxygen species were significantly decreased (MLE-12 cells) [µM] | time from which cell death was observed (H9C2 cells) [h] | EC50 (HK-2) [µM] | EC50 (ARPE-19) [µM] | EC50 (MLE-12; MLE-12, RSL3 1 μM) [µM]
O=S1(=O)CCN(Cc2cc(NC3CCOCC3)c3[nH]c(-c4ccccc4)cc3c2)CC1 [Example 1, 5-[(1,1-dioxido-4-thiomorpholinyl)methyl]-2-phenyl-N-(tetrahydro-2H-pyran-4-yl)-1H-indole-7-amine] | up to 24 hours | 0.1 | ≤ 0.03 | ≤ 0.03 | ≤ 0.03 | 0.01 |  |  |  | 
CCOC(=O)c1ccc(NC2CCCCC2)c(N)c1 [Fer-1, ferrostatin-1, reference compound] | up to 18 hours | 10 |  |  |  | 0.1 | ≥ 21 | 0.03 to 0.1 | 0.03 to 0.1 | 0.03 to 0.1
